Several values for one entry are separate records, joined by “and”; a condition that tells them apart may be missing. Equal values may be shown once. Read-outs that look alike come from different tables or passages of the source. Starred links: 1 amine or outer side, 2 acyl side, 3 side chain; linkers in the order of their positions; H or OH if unused. Non-standard residues stand in square brackets, D forms with d. Residues, ends and D or L forms follow the SMILES beside them. NMeI = CC[C@H](C)[C@H](NC)C(=O)O; Suc = O=C(CCC(=O)[*:2])[*:1]; NMeV = CN[C@H](C(=O)O)C(C)C

A word on the EC50: it is the midpoint of the concentration-response curve.

Test [1] has as its target T1, huTAC3R (NK3R) (Homo sapiens, UniProt P29371).
T1 construct: host or cells: COS-7
T1 sequence (P29371 1-465): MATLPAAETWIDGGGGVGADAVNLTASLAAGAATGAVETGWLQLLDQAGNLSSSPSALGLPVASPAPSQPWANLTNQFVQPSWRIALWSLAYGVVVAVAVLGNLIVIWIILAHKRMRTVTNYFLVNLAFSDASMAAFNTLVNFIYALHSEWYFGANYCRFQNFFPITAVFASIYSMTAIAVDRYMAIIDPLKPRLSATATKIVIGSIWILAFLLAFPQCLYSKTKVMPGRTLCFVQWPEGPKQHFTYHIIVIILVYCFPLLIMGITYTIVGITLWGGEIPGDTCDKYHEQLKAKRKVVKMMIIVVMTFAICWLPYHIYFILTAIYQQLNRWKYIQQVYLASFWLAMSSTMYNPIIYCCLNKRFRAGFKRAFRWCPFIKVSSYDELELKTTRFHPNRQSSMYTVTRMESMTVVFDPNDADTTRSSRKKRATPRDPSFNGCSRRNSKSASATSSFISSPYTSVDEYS
In words: CRE-/SRE-Luc receptor transactivation reporter assay in COS-7 cells, human TAC3R. It is filed as cell-based. To be noted: mean ± SEM. From the text: (§1) Receptor transactivation assays were generally performed according to Biran et al. ([10]). Briefly, in order to study the signaling pathways of the novel fish NKB and NKF analogs, the entire coding sequence of tiTac3ra (GenBank accession no. KF471674), tiTac3rb (GenBank accession no. KF471675), zfTac3ra (GenBank accession no. JF317292) and zfTac3rb (GenBank accession no. JF317293) were inserted into pcDNA3.1 (Invitrogen). To differentiate between the protein kinase A (PKA) and PKC signal transduction pathways, we used a sensitive luciferase (Luc) reporter gene assay. […] The cDNA clone for human TAC3R was obtained from the Missouri S&T cDNA Resource Center (www.cdna.org). Three micrograms of each construct together with three micrograms of a luciferase reporter plasmid were transiently co-transfected into COS-7 cells. […] EC50 values were calculated from dose response curves by means of computerized non-linear curve fitting on baseline-corrected (control) values using Prism version 6 software (GraphPad).
A general note: In a reporter assay the amount or activity of a reporter protein is the signal.

Test [2] addresses tiTac3ra (Oreochromis niloticus, UniProt A0A075QPN8). The experiment in a line: cell-based. The settings on record: COS-7 cells, mean ± SEM.
Description: (§2) Receptor transactivation assays were generally performed according to Biran et al. ([10]). Briefly, in order to study the signaling pathways of the novel fish NKB and NKF analogs, the entire coding sequence of tiTac3ra (GenBank accession no. KF471674), tiTac3rb (GenBank accession no. KF471675), zfTac3ra (GenBank accession no. JF317292) and zfTac3rb (GenBank accession no. JF317293) were inserted into pcDNA3.1 (Invitrogen). To differentiate between the protein kinase A (PKA) and PKC signal transduction pathways, we used a sensitive luciferase (Luc) reporter gene assay. […] Three micrograms of each construct together with three micrograms of a luciferase reporter plasmid were transiently co-transfected into COS-7 cells. […] EC50 values were calculated from dose response curves by means of computerized non-linear curve fitting on baseline-corrected (control) values using Prism version 6 software (GraphPad).
In test [3] the target is tiTac3rb (Oreochromis niloticus, UniProt A0A075QUD7). The experiment in a line: cell-based. To be noted: COS-7 cells, mean ± SEM.
Description: as §2
In test [4] the target is T2, zfTac3ra (Danio rerio, UniProt H6A6A7).
T2 sequence (H6A6A7 1-399): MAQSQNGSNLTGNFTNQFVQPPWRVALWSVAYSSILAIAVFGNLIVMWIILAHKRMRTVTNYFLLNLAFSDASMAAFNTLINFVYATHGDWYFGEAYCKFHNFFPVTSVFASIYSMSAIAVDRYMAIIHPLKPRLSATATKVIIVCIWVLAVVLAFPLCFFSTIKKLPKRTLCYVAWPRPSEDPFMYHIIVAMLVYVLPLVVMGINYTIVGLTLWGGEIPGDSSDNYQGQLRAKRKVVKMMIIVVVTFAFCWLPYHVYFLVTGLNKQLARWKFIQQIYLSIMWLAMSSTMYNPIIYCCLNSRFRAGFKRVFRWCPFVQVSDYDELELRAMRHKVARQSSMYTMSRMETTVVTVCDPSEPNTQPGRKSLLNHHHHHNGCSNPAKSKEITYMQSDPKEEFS
In words: CRE-/SRE-Luc receptor transactivation reporter assay in COS-7 cells, zebrafish Tac3ra. It is filed as cell-based. To be noted: mean ± SEM.
Description: as §1

For test [5], the target named is T3, zfTac3rb (Danio rerio, UniProt F1R3V0).
T3 sequence (F1R3V0 1-395): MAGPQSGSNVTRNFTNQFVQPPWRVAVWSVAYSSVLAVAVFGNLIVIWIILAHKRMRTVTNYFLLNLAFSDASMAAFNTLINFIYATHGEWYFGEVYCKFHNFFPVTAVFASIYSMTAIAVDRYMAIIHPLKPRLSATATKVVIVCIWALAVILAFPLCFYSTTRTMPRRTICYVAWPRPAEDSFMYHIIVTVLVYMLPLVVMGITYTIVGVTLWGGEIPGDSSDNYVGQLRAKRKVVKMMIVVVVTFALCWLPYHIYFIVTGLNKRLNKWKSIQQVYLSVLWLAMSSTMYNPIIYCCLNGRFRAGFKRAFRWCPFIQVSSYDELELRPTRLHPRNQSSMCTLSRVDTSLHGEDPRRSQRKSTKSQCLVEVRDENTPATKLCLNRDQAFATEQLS
In words: CRE-/SRE-Luc receptor transactivation reporter assay in COS-7 cells, zebrafish Tac3rb. To be noted: mean ± SEM. It is filed as cell-based.
Description: as §1

The subject of test [6] is female tilapia. The experiment in a line: In vivo effect on GH, FSH and LH plasma levels (ELISA) after IP injection. Further details: species or system Nile tilapia (O. niloticus). To be noted: peptides/analogs 100 μg/kg BW, sGnRHa 10 μg/kg BW. The protocol:
Adult female tilapia (BW 89.29 ± 32.93 g) were injected IP with saline, sGnRH analog ([…]; 10 μg/kg BW; [[…],[…]-Net]-mammalian GnRH; Bachem), tiNKB, tiNKF, or their analogs at 100 μg/kg BW (n = 8 fish per group). The fish were bled from the caudal blood vessels into heparinized syringes 1, 2, 4, 8, and 24 h after injection and blood was centrifuged (3,200 rpm for 30 min at 4°C) to obtain plasma samples, which were stored at -20°C until assayed. This time course is according to standard protocols used previously ([28], [29]) to test the effect of GnRH and other hypothalamic neuropeptides on circulating levels of LH, FSH, and GH in tilapia. Blood samples were collected from the caudal vasculature. Three independent experiments were carried out for the in vivo studies. Levels of LH, FSH, and GH in the plasma were measured by specific competitive ELISAs developed for tilapia ([30], [31]) based on recombinant ([…] or rtiGH. Primary antisera was produced against […]β, or rtGH ([31]), and […]βα ([28]) or rtGH was used for generating the standard curves.
(An ELISA detects its analyte on a solid surface through an enzyme-linked reagent.)

Where [7] appears, read: SRE-Luc reporter (PKC/Ca2+), read-out: EC50 huTAC3R (NK3R) SRE.
[8] abbreviates: EC50 tiTac3ra CRE, CRE-Luc reporter (PKA/cAMP).
[9] abbreviates: EC50 tiTac3ra SRE, SRE-Luc reporter (PKC/Ca2+).
The mark [10] stands for this setting: EC50 tiTac3rb CRE, CRE-Luc reporter (PKA/cAMP).
The mark [11] stands for this setting: EC50 tiTac3rb SRE, SRE-Luc reporter (PKC/Ca2+).
The mark [12] stands for this setting: CRE-Luc reporter (PKA/cAMP), read-out: EC50 huTAC3R (NK3R) CRE.
[13] abbreviates: CRE-Luc reporter (PKA/cAMP), read-out: EC50 zfTac3ra CRE.
Setting [14] is: SRE-Luc reporter (PKC/Ca2+), read-out: EC50 zfTac3ra SRE.
[15] abbreviates: CRE-Luc reporter (PKA/cAMP), read-out: EC50 zfTac3rb CRE.
Setting [16] is: SRE-Luc reporter (PKC/Ca2+), read-out: EC50 zfTac3rb SRE.

tiTac3ra, sequence (A0A075QPN8 1-415): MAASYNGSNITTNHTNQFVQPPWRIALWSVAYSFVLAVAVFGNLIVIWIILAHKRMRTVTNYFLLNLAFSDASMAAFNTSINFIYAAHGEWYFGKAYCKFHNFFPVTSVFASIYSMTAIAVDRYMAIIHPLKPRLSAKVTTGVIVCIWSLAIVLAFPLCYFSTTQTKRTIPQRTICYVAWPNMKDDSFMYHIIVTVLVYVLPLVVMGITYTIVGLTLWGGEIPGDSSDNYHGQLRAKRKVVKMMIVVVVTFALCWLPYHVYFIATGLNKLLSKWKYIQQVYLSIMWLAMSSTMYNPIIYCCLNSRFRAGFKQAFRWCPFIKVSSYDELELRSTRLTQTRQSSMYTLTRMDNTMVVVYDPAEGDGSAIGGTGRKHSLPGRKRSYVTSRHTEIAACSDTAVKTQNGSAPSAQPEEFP
tiTac3rb, sequence (A0A075QUD7 1-361): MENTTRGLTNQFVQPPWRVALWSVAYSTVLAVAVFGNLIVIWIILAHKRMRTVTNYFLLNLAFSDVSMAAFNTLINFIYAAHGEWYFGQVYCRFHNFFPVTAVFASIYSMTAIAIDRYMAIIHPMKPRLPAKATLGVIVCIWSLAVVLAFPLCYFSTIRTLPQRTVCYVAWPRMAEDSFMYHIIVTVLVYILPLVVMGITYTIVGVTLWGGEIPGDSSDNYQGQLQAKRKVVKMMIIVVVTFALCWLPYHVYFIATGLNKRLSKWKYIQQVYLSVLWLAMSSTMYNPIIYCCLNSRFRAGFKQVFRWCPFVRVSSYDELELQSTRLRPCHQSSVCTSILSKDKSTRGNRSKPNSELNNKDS

For the compound `CC[C@H](C)[C@H](NC(=O)[C@H](CC(=O)O)NC(=O)CCC(=O)O)C(=O)N[C@@H](Cc1ccccc1)C(=O)N(C)[C@H](C(=O)NCC(=O)N[C@@H](CC(C)C)C(=O)N[C@@H](CCSC)C(N)=O)[C@@H](C)CC` [tiNKB analog, Succ-Asp-Ile-Phe-N(Me)Ile-Gly-Leu-Met-NH2] (Suc-DIF[NMeI]GLM-NH2), the EC50 in test [1] (setting [7]) was determined as 210.2 ± 1.18 nM; in test [2] (setting [8]), 12.9 ± 0.36 nM; in test [2] (setting [9]), 12.3 ± 0.29 nM; in test [3] (setting [10]), 6.88 ± 0.29 nM; in test [3] (setting [11]), 1.73 ± 0.46 nM.
`CSCC[C@H](NC(=O)[C@H](CC(C)C)NC(=O)CNC(=O)[C@@H](NC(=O)[C@H](Cc1ccccc1)NC(=O)[C@H](CO)NC(=O)[C@H](CC(=O)O)NC(=O)[C@H](Cc1ccc(O)cc1)NC(=O)[C@H](CC(=O)O)NC(=O)[C@H](CC(C)C)NC(=O)[C@H](CC(=O)O)NC(=O)[C@H](CC(N)=O)NC(=O)[C@@H](N)Cc1ccc(O)cc1)C(C)C)C(N)=O` [tiNKF] (H-YNDLDYDSFVGLM-NH2): the 50% effective concentration (EC50) in test [1] (setting [12]) was 0.51 ± 0.24 nM; in test [1] (setting [7]), 32.58 ± 0.05 nM; in test [2] (setting [8]), 3.17 ± 0.18 nM; in test [2] (setting [9]), 0.2 nM and 0.24 nM; in test [3] (setting [10]), 2.13 ± 0.42 nM; in test [3] (setting [11]), 0.46 ± 0.49 nM.
Regarding `CC[C@H](C)[C@H](NC(=O)[C@H](CC(=O)O)NC(=O)CCC(=O)O)C(=O)N[C@@H](Cc1ccccc1)C(=O)N(C)[C@H](C(=O)NCC(=O)N[C@@H](CC(C)C)C(=O)N[C@@H](CCSC)C(N)=O)C(C)C` [zfNKBa analog, Succ-Asp-Ile-Phe-N(Me)Val-Gly-Leu-Met-NH2] (Suc-DIF[NMeV]GLM-NH2), the half-maximal effective concentration (EC50) was determined as 11.5 ± 0.4 nM in test [1] (setting [12]); 0.03 nM in test [1] (setting [7]); 873.2 ± 0.64 nM in test [4] (setting [13]); 7.88 ± 1.89 nM in test [4] (setting [14]); 0.781 ± 0.15 nM in test [5] (setting [15]); 5.79 ± 0.52 nM in test [5] (setting [16]).
On to `CC[C@H](C)[C@H](NC(=O)[C@H](CC(=O)O)NC(=O)[C@H](Cc1c[nH]cn1)NC(=O)[C@H](CCSC)NC(=O)[C@@H](N)CCC(=O)O)C(=O)N[C@@H](Cc1ccccc1)C(=O)N[C@H](C(=O)NCC(=O)N[C@@H](CC(C)C)C(=O)N[C@@H](CCSC)C(N)=O)C(C)C` [zfNKBa] (H-EMHDIFVGLM-NH2), for which the EC50 stood at 1.71 ± 0.32 nM in test [1] (setting [12]); 0.11 ± 0.3 nM in test [1] (setting [7]); 26.5 ± 0.38 nM in test [4] (setting [13]); 139.6 ± 0.38 nM in test [4] (setting [14]); 41.37 ± 0.18 nM in test [5] (setting [15]); 1.1 ± 0.13 nM in test [5] (setting [16]).
Regarding `CC[C@H](C)[C@H](NC(=O)CNC(=O)[C@@H](NC(=O)[C@@H](N)CO)[C@@H](C)O)C(=O)N[C@@H](CC(N)=O)C(=O)N[C@@H](CCCNC(=N)N)C(=O)N[C@@H](CCC(=O)O)C(=O)N[C@@H](C)C(=O)N[C@@H](Cc1c[nH]cn1)C(=O)N[C@@H](CC(C)C)C(=O)N1CCC[C@H]1C(=O)N[C@@H](Cc1ccccc1)C(=O)N[C@@H](CCCNC(=N)N)C(=O)N1CCC[C@H]1C(=O)N[C@@H](CC(N)=O)C(=O)N[C@@H](CCSC)C(=O)N[C@@H](CC(N)=O)C(=O)N[C@@H](CC(=O)O)C(=O)N[C@H](C(=O)N[C@@H](Cc1ccccc1)C(=O)N[C@H](C(=O)NCC(=O)N[C@@H](CC(C)C)C(=O)N[C@@H](CC(C)C)C(=O)N[C@@H](CCC(=O)O)C(=O)N[C@@H](CCSC)C(=O)N[C@@H](Cc1c[nH]cn1)C(=O)N[C@@H](CC(=O)O)C(=O)N[C@H](C(=O)N[C@@H](Cc1ccccc1)C(=O)N[C@H](C(=O)NCC(=O)N[C@@H](CC(C)C)C(=O)N[C@@H](CCSC)C(N)=O)C(C)C)[C@@H](C)CC)C(C)C)[C@@H](C)CC` [zfNKBb] (H-STGINREAHLPFRPNMNDIFVGLLEMHDIFVGLM-NH2), the EC50 was 17.4 ± 0.15 nM in test [1] (setting [12]); 18.7 ± 0.25 nM in test [1] (setting [7]); 0.94 nM and 0.948 nM in test [4] (setting [13]); 84.98 ± 0.31 nM in test [4] (setting [14]); 101.4 ± 0.37 nM in test [5] (setting [15]); 17.9 ± 0.43 nM in test [5] (setting [16]).
For `CC[C@H](C)[C@H](NC(=O)[C@H](CC(=O)O)NC(=O)[C@H](CC(N)=O)NC(=O)[C@@H](N)Cc1ccc(O)cc1)C(=O)N[C@@H](CC(=O)O)C(=O)N[C@@H](Cc1ccc(O)cc1)C(=O)N[C@@H](CC(=O)O)C(=O)N[C@@H](CO)C(=O)N[C@@H](Cc1ccccc1)C(=O)N[C@H](C(=O)NCC(=O)N[C@@H](CC(C)C)C(=O)N[C@@H](CCSC)C(N)=O)C(C)C` [zfNKF] (H-YNDIDYDSFVGLM-NH2), the EC50 in test [1] (setting [12]) turned out to be 1.25 nM; in test [1] (setting [7]), 0.18 ± 0.52 nM; in test [4] (setting [13]), 5.47 ± 0.43 nM; in test [4] (setting [14]), 0.51 ± 0.36 nM; in test [5] (setting [15]), 0.032 nM; in test [5] (setting [16]), 25.51 ± 0.23 nM.
For the compound “[D-Ala^6,Pro^9-Net]-mammalian GnRH [sGnRHa]”, in test [6], the “duration of increased plasma LH post-injection” value is listed as “up to 4 h”.

These data come from PMC6639853, “Deciphering Direct and Indirect Effects of Neurokinin B and GnRH in the Brain-Pituitary Axis of Tilapia” (Frontiers in Endocrinology, 2019).
